According to ChEMBL document CHEMBL5143506, “Design, synthesis, and mechanism study of dimerized phenylalanine derivatives as novel HIV-1 capsid inhibitors” (Eur J Med Chem, 2021):

What was measured:
[1] = in vitro; conditions: human, liver microsomes
[2] = test system: MT4; test: (§1) Cytotoxicity against human MT4 cells assessed as reduction in cell viability incubated for 5 days by MTT assay; conditions: mt4, 120 h
[3] = test system: Human immunodeficiency virus 1; test: Antiviral activity against wild type HIV-1 IIIB infected in human MT4 cells assessed as protection against virus-induced cytopathic effect measured after 5 days by MTT assay; assay type: functional, organism-based; conditions: Human immunodeficiency virus 1, IIIB, MT4, 120 h
[4] = human, microsomes, 3 h, 100 µM
[5] = test system: Human immunodeficiency virus 1; test: Antiviral activity against HIV1 NL4-3 Env-deficient pseudotype virus infected in human U87.CD4.CCR5.CXCR4 cells assessed by reduction in viral infection in late stage at 1 uM measured after 48 hrs by luciferase activity based single-round infection assay; assay type: functional; design: scale not given: the % may be the effect or the level left
[6] = in vitro; conditions: human, liver microsomes; remark: listed apart in the source
Description: Metabolic stability in human liver microsome assessed as parent compound remaining at 100 uM measured after 60 mins in presence of NADPH by LC-MS/MS analysis

[7] = in vitro; conditions: human, liver microsomes; remark: listed apart in the source
Description: Metabolic stability in human liver microsome assessed as parent compound remaining at 100 uM measured after 60 mins by LC-MS/MS analysis

[8] = test system: Human immunodeficiency virus 1; test: Antiviral activity against HIV1 NL4-3 Env-deficient pseudotype virus infected in human U87.CD4.CCR5.CXCR4 cells assessed by reduction in viral infection in early stage at 1 uM measured after 48 hrs by luciferase activity based single-round infection assay; assay type: functional; design: scale not given: the % may be the effect or the level left
[9] = in vitro; conditions: human, MT4 cells
Description: Selectivity index, ratio of CC50 for cytotoxicity against human MT4 cells to EC50 for antiviral activity against HIV-1 IIIB infected in human MT4 cells

[10] = as §1; conditions: MT4 cells
[11] = human, microsomes, 3 h, 100 µM; remark: listed apart in the source
[12] = test system: Human immunodeficiency virus 1; test: Antiviral activity against HIV1 NL4-3 Env-deficient pseudotype virus infected in human U87.CD4.CCR5.CXCR4 cells assessed by reduction in viral infection in early stage at 5 uM measured after 48 hrs by luciferase activity based single-round infection assay; assay type: functional; design: scale not given: the % may be the effect or the level left
[13] = test system: Human immunodeficiency virus 1; test: Antiviral activity against HIV1 NL4-3 Env-deficient pseudotype virus infected in human U87.CD4.CCR5.CXCR4 cells assessed by reduction in viral infection in late stage at 5 uM measured after 48 hrs by luciferase activity based single-round infection assay; assay type: functional; design: scale not given: the % may be the effect or the level left
[14] = in vitro; conditions: human, MT4 cells; remark: listed apart in the source
Description: Selectivity index, ratio of CC50 for cytotoxicity against human MT4 cells to EC50 for antiviral activity against HIV-1 ROD infected in human MT4 cells

Row | Compound | CC50 [2] | EC50 [3] | selectivity ratio [9] | further results
1 | Cc1[nH]c2ccccc2c1CC(=O)N[C@@H](Cc1ccccc1)C(=O)N(C)c1ccccc1 | – | – | – | half-life at 3 h, 100 µM [1]: 30 s
2 | COc1ccc(N(C)C(=O)[C@H](Cc2ccccc2)NC(=O)CN2CCN(S(=O)(=O)c3ccc(N)cc3)CC2=O)cc1 | 119 µM | 0.16 µM | – | CLH [4]: 395.6 µL/min/mg; Activity [5]: 55%; remaining at 1 h, 100 µM [6]: 0.1%; remaining at 1 h, 100 µM [7]: 106%; Activity [8]: 7.1%
3 | COc1ccc(N(C)C(=O)[C@H](Cc2ccccc2)NC(=O)CN2CCN(CC(=O)N[C@@H](Cc3ccccc3)C(=O)N(C)c3ccc(OC)cc3)C(=O)C2)cc1 | 15.7 µM | ≥ 3.67 µM | – | –
4 | COc1ccc(N(C)C(=O)[C@H](Cc2cc(F)cc(F)c2)NC(=O)CN2CCN(CC(=O)N[C@@H](Cc3ccccc3)C(=O)N(C)c3ccccc3)C(=O)C2)cc1 | 12.8 µM | 4.19 µM | 3.05 | –
5 | COc1ccc(N(C)C(=O)[C@H](Cc2ccccc2)NC(=O)CN2CC(=O)N(CC(=O)N[C@@H](Cc3ccccc3)C(=O)N(C)c3ccc(OC)cc3)CC2=O)cc1 | – | 3.59 µM | 6.82 | CC50 at 120 h [10]: 24.5 µM
6 | COc1ccc(N(C)C(=O)[C@H](Cc2cc(F)cc(F)c2)NC(=O)CN2CCN(CC(=O)N[C@@H](Cc3ccccc3)C(=O)N(C)c3ccc(OC)cc3)C(=O)C2)cc1 | 13.5 µM | 1.48 µM | 9.11 | –
7 | CN(C(=O)[C@H](Cc1ccccc1)NC(=O)CN1CCNCC1=O)c1ccccc1 | – | 247 µM | – | CC50 at 120 h [10]: > 317 µM
8 | COc1ccc(N(C)C(=O)[C@H](Cc2cc(F)cc(F)c2)NC(=O)CN2CCN(CC(=O)N[C@@H](Cc3ccccc3)C(=O)N(C)c3ccccc3)CC2=O)cc1 | 17.5 µM | 2.84 µM | 6.15 | –
9 | COc1ccc(N(C)C(=O)[C@H](Cc2cc(F)cc(F)c2)NC(=O)CN2CCNCC2=O)cc1 | > 272 µM | 31.1 µM | – | –
10 | COc1ccc(N(C)C(=O)[C@H](Cc2ccccc2)NC(=O)CN2CCNCC2=O)cc1 | > 294 µM | 89.2 µM | – | –
11 | COc1ccc(N(C)C(=O)[C@H](Cc2cc(F)cc(F)c2)NC(=O)CN2CC(=O)N(CC(=O)N[C@@H](Cc3cc(F)cc(F)c3)C(=O)N(C)c3ccc(OC)cc3)CC2=O)cc1 | 13.3 µM | 0.69 µM | – | t1/2 [11]: 96 s; CLH [4]: 843.9 µL/min/mg; remaining at 1 h, 100 µM [6]: 0%; remaining at 1 h, 100 µM [7]: 105%
12 | COc1ccc(N(C)C(=O)[C@H](Cc2ccccc2)NC(=O)CN2CCN(CC(=O)N[C@@H](Cc3ccccc3)C(=O)N(C)c3ccccc3)CC2=O)cc1 | 32.4 µM | > 32.4 µM | – | –
13 | COc1ccc(N(C)C(=O)[C@H](Cc2cc(F)cc(F)c2)NC(=O)CN2CCN(CC(=O)N[C@@H](Cc3cc(F)cc(F)c3)C(=O)N(C)c3ccc(OC)cc3)C(=O)C2)cc1 | – | – | – | t1/2 [11]: 48 s; Activity [12]: 86.6%; Activity [13]: 0.6%
14 | COc1ccc(N(C)C(=O)[C@H](Cc2ccccc2)NC(=O)CN2CCN(CC(=O)N[C@@H](Cc3cc(F)cc(F)c3)C(=O)N(C)c3ccc(OC)cc3)C(=O)C2)cc1 | 15.5 µM | 2.52 µM | 6.14 | –
15 | CN(C(=O)[C@H](Cc1ccccc1)NC(=O)CN1CC(=O)N(CC(=O)N[C@@H](Cc2ccccc2)C(=O)N(C)c2ccccc2)CC1=O)c1ccccc1 | 71.8 µM | 4.24 µM | 16.9 | selectivity ratio [14]: 2.41
16 | COc1ccc(N(C)C(=O)[C@H](Cc2ccccc2)NC(=O)CN2CCN(CC(=O)N[C@@H](Cc3ccccc3)C(=O)N(C)c3ccccc3)C(=O)C2)cc1 | 21.7 µM | ≥ 3.37 µM | – | –
17 | CN(C(=O)[C@H](Cc1ccccc1)NC(=O)CN1CCN(CC(=O)N[C@@H](Cc2ccccc2)C(=O)N(C)c2ccccc2)C(=O)C1)c1ccccc1 | 32.6 µM | > 32.6 µM | – | –
